We go through 20 compounds from patent publication US10173991B2, “Sulfone amide linked benzothiazole inhibitors of endothelial lipase” (BRISTOL-MYERS SQUIBB COMPANY, priority 2014, dated 2019).

In general, IC50 refers to the concentration that inhibits the measured activity by half. Low readings indicate inhibition by little substance, high ones a need for much substance.

The first test deals with Endothelial lipase (EL) (Homo sapiens (Human), UniProt Q9Y5X9). In words: Endothelial lipase (EL) enzymatic assay with fluorescent substrate A10070 in DMPG vesicles. The test is classed as biochemical.
Chain of Endothelial lipase (EL) (Q9Y5X9 21-500): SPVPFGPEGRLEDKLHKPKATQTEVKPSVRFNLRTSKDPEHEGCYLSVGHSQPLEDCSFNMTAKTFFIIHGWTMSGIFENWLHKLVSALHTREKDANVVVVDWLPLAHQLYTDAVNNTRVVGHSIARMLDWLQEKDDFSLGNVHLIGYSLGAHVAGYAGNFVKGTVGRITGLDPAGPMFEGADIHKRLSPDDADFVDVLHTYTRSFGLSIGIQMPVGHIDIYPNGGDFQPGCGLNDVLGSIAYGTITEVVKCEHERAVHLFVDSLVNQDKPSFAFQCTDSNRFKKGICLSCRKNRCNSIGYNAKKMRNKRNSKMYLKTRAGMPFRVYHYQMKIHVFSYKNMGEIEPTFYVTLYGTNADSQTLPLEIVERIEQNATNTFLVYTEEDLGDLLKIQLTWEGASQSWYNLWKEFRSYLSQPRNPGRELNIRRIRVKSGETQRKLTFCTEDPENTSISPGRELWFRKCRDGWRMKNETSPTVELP
Settings: not given
In outline: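 Vesicles prepared: A10070 dried with DMPG, resuspended in HEPES pH 8.0/NaCl/EDTA, sonicated on ice. Enzyme incubated with compound 30 min at 37° C. Reaction started with 1:10 diluted vesicles. Fluorescence (490/530 nm) followed 60 min; slope from 300–900 secs gives rate.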
Consider `CC(=O)N(C)c1ccc(-c2ccc3nc(C(C(=O)NCC(=O)NC4CC4)S(=O)(=O)CCC(F)(F)F)sc3c2)cc1` (centres unmarked) [Example 28, N-[(cyclopropyl-carbamoyl)methyl]-2-{6-[4-(N-methylacetamido)phenyl]-1,3-benzothiazol-2-yl}-2-(3,3,3-trifluoropropane-sulfonyl) acetamide], for which the IC50 is 54 nM.

In turn, `COCCS(=O)(=O)C(C(=O)NCC(=O)NC1CC1)c1nc2cc(-c3ccnc(C)c3)ccc2s1` (centres unmarked) [Example 70, N-[(cyclopropyl-carbamoyl)methyl]-2-(2-methoxyethane-sulfonyl)-2-[5-(2-methylpyridin-4-yl)-1,3-benzothiazol-2-yl]acetamide] registered an IC50 of 24 nM.

Take `COCCS(=O)(=O)C(C(=O)NCC(=O)NC1CC1)c1nc2ccc(-c3ccc(C(=O)N4CC[C@@H](OC)C4)cc3)cc2s1` (stereo partly drawn) [Example 407, N-[(cyclopropyl-carbamoyl)methyl]-2-(2-methoxyethane-sulfonyl)-2-(6-{4-[(3R)-3-methoxy-pyrrolidine-1-carbonyl]phenyl}-1,3-benzothiazol-2-yl)acetamide]: inhibition was half-maximal at 24 nM (IC50).

On to `COCCS(=O)(=O)C(C(=O)NCC(=O)NC1CC1)c1nc2cc(F)c(-c3ccc(C4CC4)nc3)cc2s1` (centres unmarked) [Example 159, N-[(cyclopropyl-carbamoyl)methyl]-2-[6-(6-cyclopropyl-pyridin-3-yl)-5-fluoro-1,3-benzothiazol-2-yl]-2-(2-methoxyethane-sulfonyl) acetamide], for which half-maximal inhibition (IC50) was put at 12 nM.

The compound `Cc1cc(-c2cc3nc(C(C(=O)NCC(=O)NC4CC4)S(=O)(=O)C(C)C)sc3cc2F)ccn1` (centres unmarked) [Example 264, N-[(cyclopropyl-carbamoyl)methyl]-2-[6-fluoro-5-(2-methylpyridin-4-yl)-1,3-benzothiazol-2-yl]-2-(propane-2-sulfonyl)acetamide] gave an IC50 of 7 nM.

`CC(C)S(=O)(=O)C(C(=O)NCC(=O)NC1CC1)c1nc2cc(C(F)(F)F)c(-c3ccc(C(=O)N4CCOCC4)cc3)cc2s1` (centres unmarked) [Example 168, N-[(cyclopropyl-carbamoyl)methyl]-2-{6-[4-(morpholine-4-carbonyl)phenyl]-5-(trifluoromethyl)-1,3-benzothiazol-2-yl}-2-(propane-2-sulfonyl) acetamide]: the IC50 was found to be 24 nM.

As to `CS(=O)(=O)C(C(=O)NCC(=O)NC1CC1)c1nc2cc(F)c(-c3ccc(NC(=O)OCC4CC4)cc3)cc2s1` (centres unmarked) [Example 527, cyclopropylmethyl N-{4-[2-({[(cyclopropyl-carbamoyl)methyl]carbamoyl}) (methanesulfonyl)methyl)-5-fluoro-1,3-benzothiazol-6-yl]phenyl} carbamate], inhibition was half-maximal at 9 nM (IC50).

For the compound `COCCS(=O)(=O)C(C(=O)NCC(=O)NC1CC1)c1nc2cc(C(F)(F)F)c(-c3cccc(C(=O)N(C)C)c3)cc2s1` (centres unmarked) [Example 157, 3-[2-({[(cyclopropyl-carbamoyl)methyl]carbamoyl}(2-methoxyethane-sulfonyl)methyl)-5-(trifluoromethyl)-1,3-benzothiazol-6-yl]-N,N-dimethylbenzamide], the IC50 was determined as 11 nM.

The compound `COCCS(=O)(=O)C(C(=O)NCC(=O)NC1CC1)c1nc2c(F)cc(-c3ccn(C)c(=O)c3)cc2s1` (centres unmarked) [Example 220, N-[(cyclopropyl-carbamoyl)methyl]-2-[4-fluoro-6-(1-methyl-2-oxo-1,2-dihydropyridin-4-yl)-1,3-benzothiazol-2-yl]-2-(2-methoxyethane-sulfonyl) acetamide] returned an IC50 of 60 nM.

`Cc1cc(-c2cc3nc(C(C(=O)NCC(=O)NC4CC4)S(=O)(=O)C(C)C)sc3cc2F)cnn1` (centres unmarked) [Example 271, N-[(cyclopropyl-carbamoyl)methyl]-2-[6-fluoro-5-(6-methylpyridazin-4-yl)-1,3-benzothiazol-2-yl]-2-(propane-2-sulfonyl)acetamide] registered an IC50 of 45 nM.

The compound `O=C(CNC(=O)C(c1nc2ccc(-c3ccc4c(c3)C(=O)NC4)cc2s1)S(=O)(=O)c1ccc(F)cc1)NC1CC1` (centres unmarked) [Example 451, N-[(cyclopropyl-carbamoyl)methyl]-2-(4-fluorobenzene-sulfonyl)-2-[6-(3-oxo-2,3-dihydro-1H-isoindol-5-yl)-1,3-benzothiazol-2-yl}acetamide] registered a half-maximal inhibitory concentration (IC50) of 39 nM.

With `O=C(CNC(=O)C(c1nc2ccc(-c3ccc(F)nc3)cc2s1)S(=O)(=O)c1ccccc1)NC1CC1` (centres unmarked) [Example 434, 2-(benzenesulfonyl)-N-[(cyclopropyl-carbamoyl)methyl]-2-[6-(6-fluoropyridin-3-yl)-1,3-benzothiazol-2-yl] acetamide], the IC50 amounted to 14 nM.

`COCCS(=O)(=O)C(C(=O)NCC(=O)NC1CC1)c1nc2cc(F)c(-c3ccc4c(c3)CCCN4C(=O)OC(C)(C)C)cc2s1` (centres unmarked) [Example 418, tert-butyl 6-[2-({[(cyclopropyl-carbamoyl)methyl]carbamoyl}(2-methoxyethane-sulfonyl)methyl)-5-fluoro-1,3-benzothiazol-6-yl]-1,2,3,4-tetrahydro-quinoline-1-carboxylate] came in with an IC50 of 9 nM.

In the case of `CC(C)S(=O)(=O)C(C(=O)NCC(=O)NC1CC1)c1nc2cc(C(F)(F)F)c(-c3ccc(F)nc3)cc2s1` (centres unmarked) [Example 170, N-[(cyclopropyl-carbamoyl)methyl]-2-[6-(6-fluoropyridin-3-yl)-5-(trifluoromethyl)-1,3-benzothiazol-2-yl]-2-(propane-2-sulfonyl) acetamide], the IC50 is 27 nM.

As for `CS(=O)(=O)C(C(=O)NCC(=O)NC1CC1)c1nc2c(Cl)cc(-c3ccc(F)nc3)cc2s1` (centres unmarked) [Example 121, 2-[4-chloro-6-(6-fluoropyridin-3-yl)-1,3-benzothiazol-2-yl]-N-[(cyclopropyl-carbamoyl)methyl]-2-methanesulfonyl-acetamide], half-maximal inhibition (IC50) required 14 nM. Against the preceding compound, the IC50 is about 1.9-fold lower.

`COCCS(=O)(=O)C(C(=O)NCC(=O)NC1CC1)c1nc2cc(-c3cncnc3C(C)C)ccc2s1` (centres unmarked) [Example 86, N-[(cyclopropyl-carbamoyl)methyl]-2-(2-methoxyethane-sulfonyl)-2-{5-[4-(propan-2-yl)pyrimidin-5-yl]-1,3-benzothiazol-2-yl}acetamide] registered an IC50 of 293 nM.

For the compound `COCCS(=O)(=O)C(C(=O)NCC(=O)NC1CC1)c1nc2cc(C)c(-c3cnc(C4CC4)nc3)cc2s1` (centres unmarked) [Example 163, N-[(cyclopropyl-carbamoyl)methyl]-2-[6-(2-cyclopropyl-pyrimidin-5-yl)-5-methyl-1,3-benzothiazol-2-yl]-2-(2-methoxyethane-sulfonyl) acetamide], the IC50 stood at 16 nM.

As to `COCCS(=O)(=O)C(C(=O)NCC(=O)NC1CC1)c1nc2c(F)cc(-c3cncnc3)cc2s1` (centres unmarked) [Example 221, N-[(cyclopropyl-carbamoyl)methyl]-2-[4-fluoro-6-(pyrimidin-5-yl)-1,3-benzothiazol-2-yl]-2-(2-methoxyethane-sulfonyl) acetamide], it took 61 nM to reach half-maximal inhibition (IC50). This IC50 lies about 3.8-fold higher than the previous one.

`COCCS(=O)(=O)C(C(=O)NCC(=O)NC1CC1)c1nc2ccc(-c3ccc(NC(C)=O)cc3)cc2s1` (centres unmarked) [Example 98, N-[(cyclopropyl-carbamoyl)methyl]-2-[6-(4-acetamidophenyl)-1,3-benzothiazol-2-yl]-2-(2-methoxyethane-sulfonyl) acetamide] yielded an IC50 of 8 nM. This IC50 lies about 7.6-fold lower than the previous one.

Still in this test, the particulars now being: EL from conditioned media of HT-1080 cells; 30 min preincubation at 37° C.
With `O=C(CNC(=O)C(c1nc2ccc(-c3ccc(F)nc3)cc2s1)S(=O)(=O)Cc1ccccc1)NC1CC1` (centres unmarked) [Example 55, N-[(Cyclopropylcarbamoyl)methyl]-2-[6-(6-fluoropyridin-3-yl)-1,3-benzothiazol-2-yl]-2-phenylmethanesulfonylacetamide], it took 26 nM to reach half-maximal inhibition (IC50).
